Measured values taken from patent US8513251B2, “Pyridazinone compounds” (Takeda Pharmaceutical Company Limited, priority 2009, dated 2013).
Counter-ions that a name gives are not always drawn.

target: T1, Human PDE10A enzyme (Homo sapiens, UniProt Q9Y233); experiment: PDE enzyme inhibition, SPA (Scintillation Proximity Assay); type: biochemical; details: Table 2; compound at 0.1 μM; read-out: Percent inhibition (0.1 μM)
T1 construct: Human PDE10A enzyme was generated from Sf9 or COS-7 cells transfected with the full-length gene; His-tag; made in house; host or cells: Sf9 or COS-7 cells
T1 sequence (Q9Y233 267-1055): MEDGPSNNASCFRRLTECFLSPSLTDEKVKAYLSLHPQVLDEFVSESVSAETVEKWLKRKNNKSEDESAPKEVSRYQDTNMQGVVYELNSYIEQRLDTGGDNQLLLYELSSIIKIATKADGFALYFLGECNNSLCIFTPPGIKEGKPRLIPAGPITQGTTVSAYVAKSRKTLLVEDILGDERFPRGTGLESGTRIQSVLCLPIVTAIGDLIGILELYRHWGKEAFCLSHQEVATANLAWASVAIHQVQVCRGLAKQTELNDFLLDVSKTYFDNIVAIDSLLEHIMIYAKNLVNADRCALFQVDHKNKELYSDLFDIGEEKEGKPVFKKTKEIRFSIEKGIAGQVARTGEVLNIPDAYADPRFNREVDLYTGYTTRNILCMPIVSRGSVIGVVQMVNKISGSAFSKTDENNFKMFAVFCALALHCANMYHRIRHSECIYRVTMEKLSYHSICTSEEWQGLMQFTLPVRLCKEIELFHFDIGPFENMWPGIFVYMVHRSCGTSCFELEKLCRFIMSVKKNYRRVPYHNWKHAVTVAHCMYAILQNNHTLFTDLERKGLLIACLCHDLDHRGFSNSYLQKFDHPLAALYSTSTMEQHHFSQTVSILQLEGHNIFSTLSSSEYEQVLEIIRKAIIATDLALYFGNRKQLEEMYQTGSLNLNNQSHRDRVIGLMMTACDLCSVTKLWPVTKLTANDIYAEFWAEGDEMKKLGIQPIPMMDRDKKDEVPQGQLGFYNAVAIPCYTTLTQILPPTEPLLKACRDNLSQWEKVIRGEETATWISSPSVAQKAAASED
Protocol: Human PDE10A enzyme was generated from Sf9 or COS-7 cells transfected with the full-length gene. Cloned enzyme was extracted from homogenized cell pellets. The extracted enzyme from Sf9 cells was partially purified using His-tag affinity column. The enzyme was stored at −70° C. until use. PDE activity was measured using a SPA (Scintillation Proximity Assay) (GE Healthcare). To evaluate the inhibitory activity, 10 μL of serial diluted compounds were incubated with 20 μL of PDE enzyme in assay buffer (50 mM HEPES-NaOH, 8.3 mM MgCl2, 1.7 mM EGTA, 0.1% BSA (pH 7.4)) for 30 min. at room temperature. Final concentration of DMSO in the assay was 1 percent as compounds were tested in duplicate in 96-well half-area plates (Corning). To start the reaction, 10 μL of substrate [3H] cGMP (25 or 50 nM; enclosed in SPA kits from GE Healthcare or purchased from PerkinElmer, respectively) was added for a final assay volume of 40 μL. After 60 min incubation at room temperature, yttrium SPA beads containing Zinc sulphate were added (20 μL at 6 mg/mL) to terminate the PDE reaction. After being settled for 60 min., assay plates were counted in a scintillation counter (PerkinElmer) to allow calculation of inhibition rate and IC50. Inhibition rate was calculated on the basis of 0% control wells with DMSO and 100% control wells without enzyme.

Row | inhibition at 0.1 µM [%] | SMILES
1 | 100 | COc1cn(-c2ccc(N3CCC(C)(O)CC3)cc2F)nc(-c2ccnn2-c2ccccc2)c1=O [Example 186, 1-[2-Fluoro-4-(4-hydroxy-4-methylpiperidin-1-yl)phenyl]-5-methoxy-3-(1-phenyl-1H-pyrazol-5-yl)pyridazin-4(1H)-one]
2 | 100 | COc1cn(-c2ccc(N3CC(C)(C)CC3=O)cc2F)nc(-c2ccnn2-c2ccccc2)c1=O [Example 189, 1-[4-(4,4-Dimethyl-2-oxopyrrolidin-1-yl)-2-fluorophenyl]-5-methoxy-3-(1-phenyl-1H-pyrazol-5-yl)pyridazin-4(1H)-one]
3 | 100 | COc1cn(-c2ccc(N3CC(C)(C)OC3=O)cc2F)nc(-c2ccnn2-c2ccccc2)c1=O [Example 190, 1-[4-(5,5-Dimethyl-2-oxo-1,3-oxazolidin-3-yl)-2-fluorophenyl]-5-methoxy-3-(1-phenyl-1H-pyrazol-5-yl)pyridazin-4(1H)-one]
4 | 101 | COc1cc(-n2cccn2)ccc1-n1cc(OC)c(=O)c(-c2ccnn2-c2ccccc2)n1 [Example 192, 5-Methoxy-1-[2-methoxy-4-(1H-pyrazol-1-yl)phenyl]-3-(1-phenyl-1H-pyrazol-5-yl)pyridazin-4(1H)-one]

same assay, conditions: Table 2; human PDE10A, [3H]cGMP substrate

Row | IC50 [µM] | SMILES
5 | < 0.01 | COc1cn(-c2ccc(N3CCC(C)(O)CC3)cc2F)nc(-c2ccnn2-c2ccccc2)c1=O [Example 186, 1-[2-Fluoro-4-(4-hydroxy-4-methylpiperidin-1-yl)phenyl]-5-methoxy-3-(1-phenyl-1H-pyrazol-5-yl)pyridazin-4(1H)-one]
6 | < 0.01 | COc1cn(-c2ccc(N3CC(C)(C)CC3=O)cc2F)nc(-c2ccnn2-c2ccccc2)c1=O [Example 189, 1-[4-(4,4-Dimethyl-2-oxopyrrolidin-1-yl)-2-fluorophenyl]-5-methoxy-3-(1-phenyl-1H-pyrazol-5-yl)pyridazin-4(1H)-one]
7 | < 0.01 | COc1cn(-c2ccc(N3CC(C)(C)OC3=O)cc2F)nc(-c2ccnn2-c2ccccc2)c1=O [Example 190, 1-[4-(5,5-Dimethyl-2-oxo-1,3-oxazolidin-3-yl)-2-fluorophenyl]-5-methoxy-3-(1-phenyl-1H-pyrazol-5-yl)pyridazin-4(1H)-one]
8 | < 0.01 | COc1cc(-n2cccn2)ccc1-n1cc(OC)c(=O)c(-c2ccnn2-c2ccccc2)n1 [Example 192, 5-Methoxy-1-[2-methoxy-4-(1H-pyrazol-1-yl)phenyl]-3-(1-phenyl-1H-pyrazol-5-yl)pyridazin-4(1H)-one]

system: not given; experiment: not given; details: not given

Row | melting point [°C] | SMILES
9 | 108 to 110 | COc1cn(-c2ccc(OS(=O)(=O)C(F)(F)F)cc2F)nc(-c2ccnn2-c2ccccc2)c1=O (as salt: methanesulfonate) [Example 93, 3-Fluoro-4-[5-methoxy-4-oxo-3-(1-phenyl-1H-pyrazol-5-yl)pyridazin-1(4H)-yl]phenyl trifluoromethanesulfonate]
10 | 164 to 165 | Cc1ccc(-n2nccc2-c2nn(-c3cccc(C(F)(F)F)c3)ccc2=O)cc1 [Example 1, 3-[1-(4-Methylphenyl)-1H-pyrazol-5-yl]-1-[3-(trifluoromethyl)phenyl]pyridazin-4(1H)-one]
11 | 130 to 131 | O=c1ccn(-c2cccc(C(F)(F)F)c2)nc1-c1ccnn1-c1ccc(F)cc1 [Example 2, 3-[1-(4-Fluorophenyl)-1H-pyrazol-5-yl]-1-[3-(trifluoromethyl)phenyl]pyridazin-4(1H)-one]
12 | 173 to 174 | COc1ccc(-n2nccc2-c2nn(-c3cccc(C(F)(F)F)c3)ccc2=O)cc1 [Example 4, 3-[1-(4-Methoxyphenyl)-1H-pyrazol-5-yl]-1-[3-(trifluoromethyl)phenyl]pyridazin-4(1H)-one]
13 | 142 to 143 | Cc1cccc(-n2nccc2-c2nn(-c3cccc(C(F)(F)F)c3)ccc2=O)c1 [Example 5, 3-[1-(3-Methylphenyl)-1H-pyrazol-5-yl]-1-[3-(trifluoromethyl)phenyl]pyridazin-4(1H)-one]
14 | 104 to 105 | O=c1ccn(-c2cccc(C(F)(F)F)c2)nc1-c1ccnn1-c1cccc(F)c1 [Example 6, 3-[1-(3-Fluorophenyl)-1H-pyrazol-5-yl]-1-[3-(trifluoromethyl)phenyl]pyridazin-4(1H)-one]
15 | 126 to 127 | Cc1ccccc1-n1nccc1-c1nn(-c2cccc(C(F)(F)F)c2)ccc1=O [Example 7, 3-[1-(2-Methylphenyl)-1H-pyrazol-5-yl]-1-[3-(trifluoromethyl)phenyl]pyridazin-4(1H)-one]
16 | 139 to 140 | O=c1ccn(-c2cccc(C(F)(F)F)c2)nc1-c1ccnn1-c1ccccc1Cl [Example 8, 3-[1-(2-Chlorophenyl)-1H-pyrazol-5-yl]-1-[3-(trifluoromethyl)phenyl]pyridazin-4(1H)-one]
17 | 146 to 147 | COc1ccccc1-n1nccc1-c1nn(-c2cccc(C(F)(F)F)c2)ccc1=O [Example 9, 3-[1-(2-Methoxyphenyl)-1H-pyrazol-5-yl]-1-[3-(trifluoromethyl)phenyl]pyridazin-4(1H)-one]
18 | 237 to 238 | O=c1ccn(-c2ccc(C(F)(F)F)cc2)nc1-c1ccnn1-c1ccccc1 [Example 11, 3-(1-Phenyl-1H-pyrazol-5-yl)-1-[4-(trifluoromethyl)phenyl]pyridazin-4(1H)-one]
19 | 146 to 147 | O=c1ccn(-c2cccc(Cl)c2)nc1-c1ccnn1-c1ccccc1 [Example 12, 1-(3-Chlorophenyl)-3-(1-phenyl-1H-pyrazol-5-yl)pyridazin-4(1H)-one]
20 | 179 to 180 | COc1ccc(-n2ccc(=O)c(-c3ccnn3-c3ccccc3)n2)cc1 [Example 14, 1-(4-Methoxyphenyl)-3-(1-phenyl-1H-pyrazol-5-yl)pyridazin-4(1H)-one]
21 | 219 to 220 | O=c1ccn(-c2ccc(Cl)cc2)nc1-c1ccnn1-c1ccccc1 [Example 18, 1-(4-Chlorophenyl)-3-(1-phenyl-1H-pyrazol-5-yl)pyridazin-4(1H)-one]
22 | 120 to 121 | Cc1ccccc1-n1ccc(=O)c(-c2ccnn2-c2ccccc2)n1 [Example 19, 1-(2-Methylphenyl)-3-(1-phenyl-1H-pyrazol-5-yl)pyridazin-4(1H)-one]
23 | 115 to 116 | Cc1cccc(-n2ccc(=O)c(-c3ccnn3-c3ccccc3)n2)c1 [Example 20, 1-(3-Methylphenyl)-3-(1-phenyl-1H-pyrazol-5-yl)pyridazin-4(1H)-one]
24 | 110 to 111 | COc1cccc(-n2ccc(=O)c(-c3ccnn3-c3ccccc3)n2)c1 [Example 21, 1-(3-Methoxyphenyl)-3-(1-phenyl-1H-pyrazol-5-yl)pyridazin-4(1H)-one]
25 | 145 to 146 | O=c1ccn(-c2ccccc2C(F)(F)F)nc1-c1ccnn1-c1ccccc1 [Example 22, 3-(1-Phenyl-1H-pyrazol-5-yl)-1-[2-(trifluoromethyl)phenyl]pyridazin-4(1H)-one]
26 | 179 to 180 | O=c1ccn(-c2ccccc2)nc1-c1ccnn1-c1ccccc1 [Example 24, 1-Phenyl-3-(1-phenyl-1H-pyrazol-5-yl)pyridazin-4(1H)-one]
27 | 182 to 183 | Cc1ccc(-n2ccc(=O)c(-c3ccnn3-c3ccccc3)n2)cc1 [Example 25, 1-(4-Methylphenyl)-3-(1-phenyl-1H-pyrazol-5-yl)pyridazin-4(1H)-one]
28 | 159 to 160 | O=c1ccn(-c2cccc(OC(F)F)c2)nc1-c1ccnn1-c1ccccc1 [Example 27, 1-[3-(Difluoromethoxy)phenyl]-3-(1-phenyl-1H-pyrazol-5-yl)pyridazin-4(1H)-one]
29 | 175 to 176 | O=c1ccn(-c2ccc(OC(F)F)cc2)nc1-c1ccnn1-c1ccccc1 [Example 28, 1-[4-(Difluoromethoxy)phenyl]-3-(1-phenyl-1H-pyrazol-5-yl)pyridazin-4(1H)-one]
30 | 200 to 201 | O=c1ccn(-c2ccccc2N2CCOCC2)nc1-c1ccnn1-c1ccccc1 [Example 29, 1-(2-Morpholin-4-ylphenyl)-3-(1-phenyl-1H-pyrazol-5-yl)pyridazin-4(1H)-one]
31 | 103 to 104 | O=c1ccn(-c2cccc(C(F)(F)F)c2)nc1-c1nncn1-c1ccccc1 [Example 40, 3-(4-Phenyl-4H-1,2,4-triazol-3-yl)-1-[3-(trifluoromethyl)phenyl]pyridazin-4(1H)-one]
32 | 191 to 192 | Cc1nnc(-c2nn(-c3cccc(C(F)(F)F)c3)ccc2=O)n1-c1ccccc1 [Example 41, 3-(5-Methyl-4-phenyl-4H-1,2,4-triazol-3-yl)-1-[3-(trifluoromethyl)phenyl]pyridazin-4(1H)-one]
